One assay concerns the target T1, STAT5a (Homo sapiens, UniProt P42229).
T1 sequence (P42229 1-794): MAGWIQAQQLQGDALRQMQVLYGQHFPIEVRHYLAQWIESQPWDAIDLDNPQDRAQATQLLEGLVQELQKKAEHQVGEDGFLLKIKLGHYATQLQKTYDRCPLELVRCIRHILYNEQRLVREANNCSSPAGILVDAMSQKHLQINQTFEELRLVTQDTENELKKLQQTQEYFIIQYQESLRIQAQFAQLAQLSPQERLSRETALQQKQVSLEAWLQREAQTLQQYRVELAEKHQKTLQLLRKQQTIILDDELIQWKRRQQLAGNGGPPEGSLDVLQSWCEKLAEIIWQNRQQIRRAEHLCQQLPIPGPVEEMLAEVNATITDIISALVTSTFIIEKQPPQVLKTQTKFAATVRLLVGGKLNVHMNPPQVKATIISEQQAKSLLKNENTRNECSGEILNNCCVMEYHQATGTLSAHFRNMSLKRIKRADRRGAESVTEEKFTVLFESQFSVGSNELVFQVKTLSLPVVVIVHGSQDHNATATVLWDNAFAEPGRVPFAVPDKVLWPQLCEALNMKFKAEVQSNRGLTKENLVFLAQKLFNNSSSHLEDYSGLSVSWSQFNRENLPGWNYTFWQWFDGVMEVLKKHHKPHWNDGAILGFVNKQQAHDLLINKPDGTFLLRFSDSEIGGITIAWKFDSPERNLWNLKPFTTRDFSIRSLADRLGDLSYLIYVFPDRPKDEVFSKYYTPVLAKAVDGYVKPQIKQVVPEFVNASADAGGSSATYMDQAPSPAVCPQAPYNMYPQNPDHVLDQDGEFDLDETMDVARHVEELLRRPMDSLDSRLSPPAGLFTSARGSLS
As to the kind of experiment: Competitive fluorescence polarization (FP) assay, STAT5a. The format is binding. The note with it: for IC50: 125-177 nM STAT5a, 10 nM tracer peptide; for Ki: Ki calculated from IC50, mean ± SD, n = 3. As for the experimental part:
(§1) Fluorescence polarization assays
STAT4; 5-carboxyfluorescein-GpYDKPHVL for STAT1; 5-carboxyfluorescein-GpYLPQTV- […]
(§2) fluorescent-labeled peptide was added. Samples were transferred to 384-well microtiter plates […]
(§3) Experiments were carried out in triplicate. Percent binding was calculated based on a logarithmic curve fit using OriginPro 8G software. Conversion of IC50 values to Ki-values was […]
(§4) Error bars represent standard deviations. […]
(§5) Experiments were carried out in triplicate. […]

The target in the next assay is T2, STAT4 SH2 domain (Homo sapiens, UniProt Q14765).
T2 sequence (Q14765 1-748): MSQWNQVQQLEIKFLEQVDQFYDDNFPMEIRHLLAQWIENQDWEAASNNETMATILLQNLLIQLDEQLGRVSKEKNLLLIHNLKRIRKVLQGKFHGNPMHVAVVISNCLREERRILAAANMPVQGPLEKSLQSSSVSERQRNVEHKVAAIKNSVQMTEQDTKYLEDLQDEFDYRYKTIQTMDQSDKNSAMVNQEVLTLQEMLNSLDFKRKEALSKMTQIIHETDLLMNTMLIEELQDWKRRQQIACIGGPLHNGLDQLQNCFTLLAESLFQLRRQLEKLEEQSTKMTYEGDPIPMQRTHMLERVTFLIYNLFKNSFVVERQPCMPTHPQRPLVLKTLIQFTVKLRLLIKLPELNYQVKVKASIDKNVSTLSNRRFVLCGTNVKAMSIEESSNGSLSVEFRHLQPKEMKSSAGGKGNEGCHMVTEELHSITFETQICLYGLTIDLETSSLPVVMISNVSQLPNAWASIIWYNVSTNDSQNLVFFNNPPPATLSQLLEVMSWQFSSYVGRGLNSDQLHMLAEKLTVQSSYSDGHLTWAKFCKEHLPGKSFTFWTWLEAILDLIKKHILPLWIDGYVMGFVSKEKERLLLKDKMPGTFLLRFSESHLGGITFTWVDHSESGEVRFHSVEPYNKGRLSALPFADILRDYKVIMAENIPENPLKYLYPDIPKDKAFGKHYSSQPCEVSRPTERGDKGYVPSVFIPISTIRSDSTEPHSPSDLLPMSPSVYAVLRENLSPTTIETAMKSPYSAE
As to the kind of experiment: Competitive fluorescence polarization (FP) assay, STAT4. It is filed as binding. Conditions: for IC50: 28 nM STAT4, 10 nM tracer peptide; for Ki: Ki calculated from IC50, mean ± SD, n = 3. On the procedure:
as §1
Competitive fluorescence polarization assays were carried as previously described.[1] Proteins […]
fluorescent-labeled peptides were used as tracers: 5-carboxyfluorescein-GpYLPQNID-OH for STAT4; 5-carboxyfluorescein-GpYDKPHVL for STAT1; 5-carboxyfluorescein-GpYLPQTV-NH2 for STAT3; 5-carboxyfluorescein-GpYLVLDKW for STAT5a/b, and 5-carboxyfluorescein- […]
mM Tris (pH 8.0), 50 mM NaCl, 1 mM EDTA, 1 mM DTT, 0.1 % Nonidet P-40 substitute, 2 %
DMSO. Proteins and test compound were incubated for 1 h at room temperature before the […]
(1 picture or pasted object on this page, not shown here) […]
fluorescent-labeled peptide was added. Samples were transferred to 384-well microtiter plates and fluorescence polarization was read after an additional 60 min of incubation time.
Experiments were carried out in triplicate. Percent binding was calculated based on a logarithmic curve fit using OriginPro 8G software. Conversion of IC50 values to Ki-values was achieved using the published equation[2] embedded in the corresponding Excel spread sheet […]
https://websites.umich.edu/~shaomengwanglab/software/calc_ki/ind ex.html.
as §4, §5

The target of a further assay is T3, STAT4 (Homo sapiens, UniProt Q14765).
T3 construct: 6xHis; made in house
T3 sequence (Q14765 1-748): T2 sequence (Q14765 1-748)
As to the kind of experiment: Isothermal titration calorimetry (ITC), binding to STAT4. Conditions: 10 µM STAT4, 100 µM ligand, 25 °C, 10 mM Tris pH 8.0, 50 mM NaCl, 1 % DMSO; n = 3. On the procedure: as §2, §3
Error bars represent standard deviations.
Isothermal Titration Calorimetry […]
dialysis tubing with a 50 kDa cut-off. ITC experiments were performed using a VP-ITC Micro […]
ITC buffer (final ligand concentration: 100 µM). 1 % (v/v) DMSO was added to the buffers […]
detection of dilution heat. Proteins were degassed before the experiments using a ThermoVac sample degassing station. […]
site binding model was used for data fitting. Figures were generated using GUSSI. Experiments were carried out in triplicate.
General synthetic methods
Method 1: Suzuki coupling […]
three times with ethyl acetate. The combined organic layers were washed with water, after which they were dried over Na2SO4 and filtered. The volatiles were removed under reduced

Turning to `Cc1cc(-c2ccc(OP(=O)(O)O)c(F)c2)cs1` [8f], the IC50 on STAT5a came out at 28 µM; at STAT4 SH2 domain it was 0.37 µM. The Ki at STAT5a is 14 ± 1 µM; at STAT4 SH2 domain, 0.18 ± 0.03 µM. The compound further came in with a Kd at STAT4 of 3.1 ± 1 µM.

As for `O=P(O)(O)Oc1ccc(-c2ccsc2)cc1` [8a], at STAT5a, the IC50 stood at 41 µM and the Ki was 20 ± 0.2 µM. On STAT4 SH2 domain, the IC50 came to 1.2 µM and the Ki is 0.56 ± 0.06 µM.

`O=P(O)(O)Oc1ccc(-c2nccs2)cc1` [8c]: at STAT5a, the IC50 came to 122 µM and the Ki was 61 ± 3 µM. On STAT4 SH2 domain, the IC50 is 8.8 µM and the Ki is 4.1 ± 0.2 µM.

Turning to `O=P(O)(O)Oc1ccc2c(c1)oc1ccccc12` [compound 12], on STAT5a, the IC50 stood at 55 µM and the Ki was 27 ± 1 µM. Further, on STAT4 SH2 domain, the IC50 is 1.78 µM and the Ki was 0.71 ± 0.08 µM.

In the case of `O=P(O)(O)Oc1ccc2c(c1)Cc1ccccc1-2` [compound 11], at STAT5a, the IC50 is 43 µM and the Ki is 21 ± 1 µM. On STAT4 SH2 domain, the IC50 was 1.52 µM and the Ki is 0.61 ± 0.03 µM.

For `O=P(O)(O)Oc1ccc(-c2cccs2)cc1` [8b], on STAT5a, the IC50 was 14.8 µM and the Ki is 7.3 ± 0.9 µM. On STAT4 SH2 domain, the IC50 was 1.09 µM and the Ki was 0.5 ± 0.03 µM.

The record behind these values is publication PMC12597212, “Biaryl Phosphate‐Based Inhibitors of the Transcription Factor STAT4” (Chemmedchem, 2025).
